Data as given in US20150037399A1, “NOVEL USE OF PIPOXOLAN AND ITS PHARMACEUTICAL COMPOSITION” (China Medical University, priority 2013, published 2015).

Test system: PDGF-BB-induced migration of A7r5 cells (VSMCs)
Test: In vitro wound healing assay
Assay type: cell-based
Conditions: PDGF-BB 30 ng/ml, 5, 10 and 15 μM, 24, 48 and 72 hr, dose-dependent
Method: The VSMCs cell line A7r5 was purchased from Bioresource Collection and Research Center (Hsinchu, Taiwan). A7r5 cells were plated onto 6-well plates in DMEM, supplemented with 10% FBS, 100 units/ml penicillin, 100 μg/ml streptomycin and 2 mM L-glutamine and grown at 37° C. under a humidified 5% CO2 and 95% air at one atmosphere. The effects of pipoxolan on VSMCs migration were evaluated by a wound-healing assay. Platelet-derived growth factor (PDGF) form VMSCs can cause cell migration, which results in intimal hyperplasia. A7r5 cells were plated in 6-well plates (2×10^5 cells per well) and damage was performed with a single scratch wound using a sterile micropipette tip. Cells were then incubated with or without PDGF-BB (30 ng/ml) and pipoxolan (5, 10, 15 μM) in serum-reduced DMEM medium (containing 0.5% fetal bovine serum). The extent of wound closure was determined using a phase contrast microscope at 24, 48, and 72 hr following wounding. Cell migration was expressed by the migration distance of drug-treated cells (mm) divided by the migration distance of untreated cells (mm).

For `Cl.O=C1OC(CCN2CCCCC2)OC1(c1ccccc1)c1ccccc1` (stereo not shown) [pipoxolan, 5,5-diphenyl-2-(2-piperidin-1-ylethyl)-1,3-dioxolan-4-one hydrochloride], the “effect on PDGF-BB-induced cell migration (wound closure)” value was “markedly inhibited”.
